Measured values: patent US20230201275A1 (priority 2020, published 2023)
“Also recorded” adds a separate entry of the source. Where two headings read alike, the source gives them in different places.

Columns and labels:
wild type HilD = wild type HilD (Salmonella typhimurium, UniProt P0CL08); type: cell-based; conditions: 20 μM, wild type HilD strain
hilA [1] = type: cell-based, Salmonella Typhimurium
HilD mutant K293A = HilD mutant K293A (Salmonella typhimurium, UniProt P0CL08, K293A); type: cell-based; conditions: 20 μM
HilD mutant K294A = HilD mutant K294A (Salmonella typhimurium, UniProt P0CL08, K294A); type: cell-based; conditions: 20 μM
RtsA = type: binding, Salmonella
[2] = tested on: Salmonella SPI1 expression (sicA-GFP); type: in vivo, mice
HilD [3] = target: T1, HilD (Salmonella typhimurium, UniProt P0CL08); type: binding
hilA [4] = type: cell-based, Salmonella; conditions: absence of lon, 20 μM
HilC = HilC (Salmonella typhimurium, UniProt P0CL09); type: binding
HilD [5] = target: T1, HilD; type: cell-based; conditions: lon mutant

Sequence of HilC (P0CL09 whole entry): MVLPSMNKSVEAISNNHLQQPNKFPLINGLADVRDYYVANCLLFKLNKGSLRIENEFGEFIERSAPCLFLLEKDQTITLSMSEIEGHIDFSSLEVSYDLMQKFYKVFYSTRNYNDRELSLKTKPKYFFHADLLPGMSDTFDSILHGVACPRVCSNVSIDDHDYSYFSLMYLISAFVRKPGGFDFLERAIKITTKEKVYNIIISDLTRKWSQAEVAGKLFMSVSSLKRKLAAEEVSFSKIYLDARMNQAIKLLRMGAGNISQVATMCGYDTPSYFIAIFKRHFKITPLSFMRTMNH
T1 sequence (P0CL08 whole entry): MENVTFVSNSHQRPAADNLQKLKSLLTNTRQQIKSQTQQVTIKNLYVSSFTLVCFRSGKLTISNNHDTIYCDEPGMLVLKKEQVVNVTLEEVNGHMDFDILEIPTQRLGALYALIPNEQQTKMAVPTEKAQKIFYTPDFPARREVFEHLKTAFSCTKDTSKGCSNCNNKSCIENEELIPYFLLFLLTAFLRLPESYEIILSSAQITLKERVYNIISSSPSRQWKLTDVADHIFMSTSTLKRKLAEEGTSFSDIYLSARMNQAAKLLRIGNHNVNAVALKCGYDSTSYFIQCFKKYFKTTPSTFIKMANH
Sequence of wild type HilD (P0CL08 whole entry): as above
Sequence of HilD mutant K294A (P0CL08 whole entry K294A, looked up): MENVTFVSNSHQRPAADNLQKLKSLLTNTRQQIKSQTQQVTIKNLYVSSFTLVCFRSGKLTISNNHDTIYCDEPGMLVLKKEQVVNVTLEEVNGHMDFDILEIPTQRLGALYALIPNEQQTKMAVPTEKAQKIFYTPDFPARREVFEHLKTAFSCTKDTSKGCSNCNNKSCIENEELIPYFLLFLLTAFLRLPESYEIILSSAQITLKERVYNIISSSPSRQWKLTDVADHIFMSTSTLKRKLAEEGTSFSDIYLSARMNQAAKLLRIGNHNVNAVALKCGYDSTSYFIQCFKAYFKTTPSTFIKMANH
Sequence of HilD mutant K293A (P0CL08 whole entry K293A, looked up): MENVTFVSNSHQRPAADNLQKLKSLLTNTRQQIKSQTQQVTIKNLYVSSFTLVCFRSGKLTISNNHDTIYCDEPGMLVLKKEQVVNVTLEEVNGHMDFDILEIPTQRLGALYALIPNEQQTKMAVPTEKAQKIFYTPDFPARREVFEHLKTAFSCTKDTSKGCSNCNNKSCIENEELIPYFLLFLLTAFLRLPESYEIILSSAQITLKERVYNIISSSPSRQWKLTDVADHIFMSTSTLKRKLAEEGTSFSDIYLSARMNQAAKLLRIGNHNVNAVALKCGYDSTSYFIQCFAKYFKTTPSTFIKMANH

Structure (SMILES) | reduction of sipB expression (wild type HilD) | hilA (invasion gene) expression (hilA [1]) | reduction of sipB expression (HilD mutant K293A) | reduction of sipB expression (HilD mutant K294A) | binding of RtsA to hilA promoter (RtsA) | percentage of Salmonella expressing SPI in the gut ([2]; mice n=5/group, P<0.01 vs control) | reduction of percentage of bacteria expressing an invasion gene in the caecum ([2]; mice, 1.5 mM in drinking water, hilD UTR A25G strain) | binding of HilD to hilA promoter (HilD [3]; 20 μM, 10 nM DNA, 150 μM protein) | binding of HilD to hilA promoter (HilD [3]; 20 μM, 10 nM DNA, 150 μM protein, listed as cis-2-hexadecenoic acid) | binding of HilD to hilA promoter (HilD [3]; 1, 2, 5 and 10 μM) | binding of HilD to hilA promoter (HilD [3]; 1, 2, 5 and 10 μM, listed as cis-2-hexadecenoic acid) | hilA expression (hilA [4]) | binding of HilC to hilA promoter (HilC; 100 μM) | binding of HilC to hilA promoter (HilC; 100 μM, listed as cis-2-hexadecenoic acid) | binding of HilC to hilA promoter (HilC; 10, 25, 50 and 75 μM) | binding of HilC to hilA promoter (HilC; 10, 25, 50 and 75 μM, listed as cis-2-hexadecenoic acid) | effect on HilD stability (HilD [5])
CCCCCCCCC/C=C\C(=O)O [2-cis-dodecenoic acid, (Z)-dodec-2-enoic acid] | 4.1 fold | reduced expression to a lesser degree | no significant reduction | no significant reduction | – | – | – | – | – | – | – | – | – | – | – | – | –
CCCCCCCCCCCCC/C=C/C(=O)O [2-trans-hexadecenoic acid, reference compound] | 5.2 fold | – | 4.7 fold | 4.5 fold | – | – | – | – | – | – | – | – | – | – | – | – | –
CCCCCCCCCCCCC/C=C\C(=O)O [2-cis-hexadecenoic acid, (Z)-hexadec-2-enoic acid] | ~11 fold | reduced expression to a lesser degree | No significant repression | No significant repression | preventing binding; also recorded: partially inhibited binding; also recorded: prevented binding; also recorded: did so partially | reduces the percentage | 2 fold | prevented the binding | completely inhibited from binding | partially inhibited binding | did so partially | continued to repress | preventing binding | prevented binding | partially inhibited binding | did so partially | no effect
